Data published in patent US20160207928A1, “NOVEL COMPOUNDS FOR THE TREATMENT OF CANCER” (BAYER PHARMA AKTIENGESELLSCHAFT, priority 2013, published 2016).

Target: T1, human kinase Mps-1 (Homo sapiens, UniProt P33981)
T1 construct: N-terminally GST-tagged human full length recombinant Mps-1 kinase; purchased Invitrogen, Karslruhe, Germany PV4071
T1 sequence (P33981 1-857): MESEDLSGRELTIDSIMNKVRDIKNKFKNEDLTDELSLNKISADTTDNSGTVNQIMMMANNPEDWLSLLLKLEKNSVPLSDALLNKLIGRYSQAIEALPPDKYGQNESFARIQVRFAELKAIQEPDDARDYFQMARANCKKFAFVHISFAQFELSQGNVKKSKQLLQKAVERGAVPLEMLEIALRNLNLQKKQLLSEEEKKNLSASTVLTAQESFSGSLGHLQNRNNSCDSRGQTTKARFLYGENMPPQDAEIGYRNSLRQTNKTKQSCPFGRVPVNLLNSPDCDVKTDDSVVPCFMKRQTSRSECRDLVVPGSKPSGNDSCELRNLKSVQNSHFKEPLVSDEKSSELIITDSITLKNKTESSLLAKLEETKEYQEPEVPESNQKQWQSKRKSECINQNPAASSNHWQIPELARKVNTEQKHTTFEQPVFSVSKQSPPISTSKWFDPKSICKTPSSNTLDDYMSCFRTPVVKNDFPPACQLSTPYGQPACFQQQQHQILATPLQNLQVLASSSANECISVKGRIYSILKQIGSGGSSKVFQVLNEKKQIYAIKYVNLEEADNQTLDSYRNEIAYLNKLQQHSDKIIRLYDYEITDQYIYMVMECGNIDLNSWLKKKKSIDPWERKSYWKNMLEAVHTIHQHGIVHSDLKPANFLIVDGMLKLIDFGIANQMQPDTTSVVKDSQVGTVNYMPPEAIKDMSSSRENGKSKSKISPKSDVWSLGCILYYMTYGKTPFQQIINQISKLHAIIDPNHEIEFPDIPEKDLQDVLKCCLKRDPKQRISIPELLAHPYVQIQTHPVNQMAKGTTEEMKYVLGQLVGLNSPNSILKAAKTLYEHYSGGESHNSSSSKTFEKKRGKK
Assay: Mps-1 kinase assay (TR-FRET, 10 μM ATP)
Type: biochemical
Conditions: N-terminally GST-tagged human full length recombinant Mps-1, read-out: Mps-1 Inhibition, IC50 (Assay with 10 μM ATP)
Experimental: The human kinase Mps-1 phosphorylates a biotinylated substrate peptide. Detection of the phosphorylated product is achieved by time-resolved fluorescence resonance energy transfer (TR-FRET) from Europium-labelled anti-phospho-Serine/Threonine antibody as donor to streptavidin Labelled with cross-linked allophycocyanin (SA-XLent) as acceptor. Compounds are tested for their inhibition of the kinase activity.
N-terminally GST-tagged human full length recombinant Mps-1 kinase (purchased from Invitrogen, Karslruhe, Germany, cat. no PV4071) was used. As substrate for the kinase reaction a biotinylated peptide of the amino-acid sequence PWDPDDADITEILG (C-terminus in amide form, purchased from Biosynthan GmbH, Berlin) was used.
For the assay 50 nl of a 100-fold concentrated solution of the test compound in DMSO was pipetted into a black low volume 384 well microtiter plate (Greiner Bio-One, Frickenhausen, Germany), 2 μl of a solution of Mps-1 in assay buffer [0.1 mM sodium-ortho-vanadate, 10 mM MgCl2, 2 mM DTT, 25 mM Hepes pH 7.7, 0.05% BSA, 0.001% Pluronic F-127] were added and the mixture was incubated for 15 min at 22° C. to allow pre-binding of the test compounds to Mps-1 before the start of the kinase reaction. Then the kinase reaction was started by the addition of 3 μl of a solution of […] (ATP, 16.7 μM=>final conc. in the 5 μl assay volume is 10 μM) and peptide substrate (1.67 μM=>final conc. in the 5 μl assay volume is 1 μM) in assay buffer and the resulting mixture was incubated for a reaction time of 60 min at 22° C. The concentration of Mps-1 in the assay was adjusted to the activity of the enzyme lot and was chosen appropriate to have the assay in the linear range, typical enzyme concentrations were in the range of about 1 nM (final conc. in the 5 μl assay volume). The reaction was stopped by the addition of 3 μl of a solution of HTRF detection reagents (100 mM Hepes pH 7.4, 0.1% BSA, 40 mM EDTA, 140 nM Streptavidin-XLent [#61GSTXLB, Fa. Cis Biointernational, Marcoule, France], 1.5 nM anti-phospho(Ser/Thr)-Europium-antibody [#AD0180, PerkinElmer LAS, Rodgau-Jügesheim, Germany].
The resulting mixture was incubated 1 h at 22° C. to allow the binding of the phosphorylated peptide to the anti-phospho(Ser/Thr)-Europium-antibody. Subsequently the amount of phosphorylated substrate was evaluated by measurement of the resonance energy transfer from the Europium-labelled anti-phospho(Ser/Thr) antibody to the Streptavidin-XLent. Therefore, the fluorescence emissions at 620 nm and 665 nm after excitation at 350 nm was measured in a Viewlux TR-FRET reader (PerkinElmer LAS, Rodgau-Jügesheim, Germany). The “blank-corrected normalized ratio” (a Viewlux specific readout, similar to the traditional ratio of the emissions at 665 nm and at 622 nm, in which blank and Eu-donor crosstalk are subtracted from the 665 nm signal before the ratio is calculated) was taken as the measure for the amount of phosphorylated substrate. The data were normalised (enzyme reaction without inhibitor=0% inhibition, all other assay components but no enzyme=100% inhibition).

Q: For `COc1cc(C(=O)N2CCOCC2)ccc1Nc1nc2ccc(-c3ccc(NC(=O)Cc4ccc(F)cc4)cc3)nn2n1` [Example 1.1, 2-(4-fluorophenyl)-N-[4-(2-{[2-methoxy-4-(morpholin-4-ylcarbonyl)phenyl]amino}[1,2,4]triazolo[1,5-b]pyridazin-6-yl)phenyl]acetamide], which IC50 is on record?
A: ≤ 1 nM

Q: For `N#Cc1ccccc1Nc1nc2cnc(-c3ccc(N)cc3)cn2n1` [Example 3.7, 2-{[6-(4-aminophenyl)[1,2,4]triazolo[1,5-a]pyrazin-2-yl]amino}benzonitrile], which IC50 is on record?
A: 443 nM

Q: `Cc1cc(-c2cn3nc(Nc4ccccc4C#N)nc3cn2)cc(C)c1O` [Example 3.1, 2-{[6-(4-hydroxy-3,5-dimethylphenyl)[1,2,4]triazolo[1,5-a]pyrazin-2-yl]amino}benzonitrile] was tested. Which IC50 did it give?
A: 33.5 nM

Q: `N#Cc1ccccc1Nc1nc2cnc(-c3cccc(C(=O)NC4CCCC4)c3)cn2n1` [Example 3.5, 3-{2-[(2-cyanophenyl)amino][1,2,4]triazolo[1,5-a]pyrazin-6-yl}-N-cyclopentylbenzamide] was tested. Which IC50 did it give?
A: 35.4 nM

Q: For `Nc1nc2ccc(-c3ccc(NC(=O)Cc4ccc(F)cc4)cc3)cc2s1` [Example 4.3, N-[4-(2-amino-1,3-benzothiazol-6-yl)phenyl]-2-(4-fluorophenyl)acetamide], which IC50 is on record?
A: 8.6 nM

Q: `N#Cc1ccccc1Nc1nc2cnc(-c3ccc(NC(=O)Cc4ccccc4)cc3)cn2n1` [Example 2.3, N-(4-{2-[(2-cyanophenyl)amino][1,2,4]triazolo[1,5-a]pyrazin-6-yl}phenyl)-2-phenylacetamide] was tested. Which IC50 did it give?
A: 2.6 nM

Q: With `N#Cc1ccccc1Nc1nc2cnc(-c3cccc(C(=O)NC4CCCCC4)c3)cn2n1` [Example 3.9, 3-{2-[(2-cyanophenyl)amino][1,2,4]triazolo[1,5-a]pyrazin-6-yl}-N-cyclohexylbenzamide] as the compound, how does the IC50 read?
A: 69 nM

Q: Which IC50 does the source give for `COc1cc(N2CCN(C)CC2)ccc1Nc1nc2cnc(-c3ccc(NC(=O)Cc4ccc(F)cc4)cc3)cn2n1` [Example 2.4, 2-(4-fluorophenyl)-N-[4-(2-{[2-methoxy-4-(4-methylpiperazin-1-yl)phenyl]amino}[1,2,4]triazolo[1,5-a]pyrazin-6-yl)phenyl]acetamide] here?
A: ≤ 1 nM

Q: How did the IC50 turn out when `COc1cc(C(=O)N2CCOCC2)ccc1Nc1nc2ccc(-c3ccc(NC(=O)Cc4ccc(F)cc4)cc3)cc2s1` [Example 4.1, 2-(4-fluorophenyl)-N-[4-(2-{[2-methoxy-4-(morpholin-4-ylcarbonyl)phenyl]amino}-1,3-benzothiazol-6-yl)phenyl]acetamide] was run?
A: ≤ 1 nM

Q: How did the IC50 turn out when `COc1ccccc1Nc1nc2cnc(-c3cc(C)c(O)c(C)c3)cn2n1` [Example 3.8, 4-{2-[(2-methoxyphenyl)amino][1,2,4]triazolo[1,5-a]pyrazin-6-yl}-2,6-dimethylphenol] was run?
A: 71.6 nM

Q: With `COc1cc(S(C)(=O)=O)cnc1Nc1cn2cc(-c3ccc(NC(=O)[C@H](C)c4ccc(F)cc4)cc3)ccc2n1` [Example 7.1, (2R)-2-(4-fluorophenyl)-N-[4-(2-{[3-methoxy-5-(methylsulfonyl)pyridin-2-yl]amino}imidazo[1,2-a]pyridin-6-yl)phenyl]propanamide] as the compound, how does the IC50 read?
A: ≤ 1 nM

Q: How did the IC50 turn out when `COc1cc(S(C)(=O)=O)ccc1Nc1nc2ccc(-c3ccc(NC(=O)Cc4ccc(F)cc4)cc3)cc2s1` [Example 4.2, 2-(4-fluorophenyl)-N-[4-(2-{[2-methoxy-4-(methylsulfonyl)phenyl]amino}-1,3-benzothiazol-6-yl)phenyl]acetamide] was run?
A: 2.9 nM

Q: Which IC50 does the source give for `N#Cc1ccccc1Nc1nc2cnc(-c3cccc(C(=O)NC4CC4)c3)cn2n1` [Example 3.3, 3-{2-[(2-cyanophenyl)amino][1,2,4]triazolo[1,5-a]pyrazin-6-yl}-N-cyclopropylbenzamide] here?
A: 84.1 nM

Q: For `CCNC(=O)c1cccc(-c2cn3nc(Nc4ccccc4C#N)nc3cn2)c1` [Example 3.4, 3-{2-[(2-cyanophenyl)amino][1,2,4]triazolo[1,5-a]pyrazin-6-yl}-N-ethylbenzamide], which IC50 is on record?
A: 206 nM

Q: Which IC50 does the source give for `N#Cc1c(F)cccc1Nc1nc2cnc(-c3ccc(NC(=O)Cc4ccc(F)c(F)c4)cc3)cn2n1` [Example 2.7, N-(4-{2-[(2-cyano-3-fluorophenyl)amino][1,2,4]triazolo[1,5-a]pyrazin-6-yl}phenyl)-2-(3,4-difluorophenyl)acetamide] here?
A: 2.9 nM

Q: For `N#Cc1ccccc1Nc1nc2cnc(-c3ccc(NC(=O)Cc4ccc(F)c(F)c4)cc3)cn2n1` [Example 2.6, N-(4-{2-[(2-cyanophenyl)amino][1,2,4]triazolo[1,5-a]pyrazin-6-yl}phenyl)-2-(3,4-difluorophenyl)acetamide], which IC50 is on record?
A: 2.1 nM

Q: `COc1cc(C(C)(C)O)ccc1Nc1nc2ccc(-c3ccc(NC(=O)Cc4ccc(F)cc4)cc3)nn2n1` [Example 1.2, 2-(4-fluorophenyl)-N-[4-(2-{[4-(2-hydroxypropan-2-yl)-2-methoxyphenyl]amino}[1,2,4]triazolo[1,5-b]pyridazin-6-yl)phenyl]acetamide] was tested. Which IC50 did it give?
A: ≤ 1 nM

Q: How did the IC50 turn out when `N#Cc1ccccc1Nc1nc2cnc(-c3ccc(NC(=O)Cc4ccc(F)cc4)cc3)cn2n1` [Example 2.1, N-(4-{2-[(2-cyanophenyl)amino][1,2,4]triazolo[1,5-a]pyrazin-6-yl}phenyl)-2-(4-fluorophenyl)acetamide] was run?
A: ≤ 1 nM

Q: With `N#Cc1c(F)cccc1Nc1nc2cnc(-c3ccc(NC(=O)CC4CC4)cc3)cn2n1` [Example 3.6, N-(4-{2-[(2-cyano-3-fluorophenyl)amino][1,2,4]triazolo[1,5-a]pyrazin-6-yl}phenyl)-2-cyclopropylacetamide] as the compound, how does the IC50 read?
A: 14.6 nM

Q: For `N#Cc1c(F)cccc1Nc1nc2cnc(-c3ccc(NC(=O)Cc4ccccc4)cc3)cn2n1` [Example 2.5, N-(4-{2-[(2-cyano-3-fluorophenyl)amino][1,2,4]triazolo[1,5-a]pyrazin-6-yl}phenyl)-2-phenylacetamide], which IC50 is on record?
A: ≤ 1 nM

Q: For `N#Cc1ccccc1Nc1nc2cnc(-c3ccc(NC(=O)CC4CC4)cc3)cn2n1` [Example 3.2, N-(4-{2-[(2-cyanophenyl)amino][1,2,4]triazolo[1,5-a]pyrazin-6-yl}phenyl)-2-cyclopropylacetamide], which IC50 is on record?
A: 22.4 nM

Q: With `COc1cc(S(C)(=O)=O)ccc1Nc1nc2cnc(-c3ccc(NC(=O)Cc4ccc(F)cc4)cc3)cn2n1` [Example 2.8, 2-(4-fluorophenyl)-N-[4-(2-{[2-methoxy-4-(methylsulfonyl)phenyl]amino}[1,2,4]triazolo[1,5-a]pyrazin-6-yl)phenyl]acetamide] as the compound, how does the IC50 read?
A: ≤ 1 nM

Q: Which IC50 does the source give for `N#Cc1c(F)cccc1Nc1nc2cnc(-c3ccc(NC(=O)Cc4ccc(F)cc4)cc3)cn2n1` [Example 2.2, N-(4-{2-[(2-cyano-3-fluorophenyl)amino][1,2,4]triazolo[1,5-a]pyrazin-6-yl}phenyl)-2-(4-fluorophenyl)acetamide] here?
A: ≤ 1 nM
